Reference: BindingDB's records for patent US12421225 (Kaken Pharmaceutical Co., 2025)

The compounds below were run against Sodium channel protein type 9 subunit alpha (Homo sapiens, UniProt Q15858) (assay: Human Nav1.7 Inhibitory Activity Evaluation).
Procedure: The amount of current through human Nav1.7 was recorded using a fully automatic patch clamp device QPatch16X (Sophion Biosciences) at room temperature. As the extracellular solution, the solution of 145 mM NaCl, 4 mM KCl, 1 mM MgCl2, 2 mM CaCl2, 10 mM Glucose, 10 mM 4-(2-hydroxyethyl)-1-piperazine ethanesulfonic acid (HEPES) at pH 7.4 was used. As the intracellular solution, the solution of 135 mM CsF, ⅕ mM glycol ether diaminetetraacetic acid (EGTA)/CsOH, 10 mM HEPES, 10 mM NaCl at pH 7.3 was used. The test compounds were dissolved in dimethyl sulfoxide (DMSO) and diluted with the extracellular solution to attain the DMSO concentration of 0.1% at the time of assay. The current response was obtained at a sampling frequency of 25 kHz, and noise was removed with a 3 kHz low-pass filter. The holding potential was −100 mV. Correction of the leakage current was carried out by applying a step pulse of −120 mV before the test pulse. In order to investigate inhibitory action of the test compound, the following test pulse was given: Namely, after depolarizing pulse of −10 mV was applied for 50 milliseconds, it was fixed at −120 mV for 500 milliseconds; a potential at which about 30-40% of the channel was inactivated was maintained for 15 seconds, then fixed again at −120 mV for 100 milliseconds, and finally a −10 mV depolarization pulse was given for 50 milliseconds. Test pulses were given before and after the test compound addition.

Chain of Sodium channel protein type 9 subunit alpha (Q15858 whole entry): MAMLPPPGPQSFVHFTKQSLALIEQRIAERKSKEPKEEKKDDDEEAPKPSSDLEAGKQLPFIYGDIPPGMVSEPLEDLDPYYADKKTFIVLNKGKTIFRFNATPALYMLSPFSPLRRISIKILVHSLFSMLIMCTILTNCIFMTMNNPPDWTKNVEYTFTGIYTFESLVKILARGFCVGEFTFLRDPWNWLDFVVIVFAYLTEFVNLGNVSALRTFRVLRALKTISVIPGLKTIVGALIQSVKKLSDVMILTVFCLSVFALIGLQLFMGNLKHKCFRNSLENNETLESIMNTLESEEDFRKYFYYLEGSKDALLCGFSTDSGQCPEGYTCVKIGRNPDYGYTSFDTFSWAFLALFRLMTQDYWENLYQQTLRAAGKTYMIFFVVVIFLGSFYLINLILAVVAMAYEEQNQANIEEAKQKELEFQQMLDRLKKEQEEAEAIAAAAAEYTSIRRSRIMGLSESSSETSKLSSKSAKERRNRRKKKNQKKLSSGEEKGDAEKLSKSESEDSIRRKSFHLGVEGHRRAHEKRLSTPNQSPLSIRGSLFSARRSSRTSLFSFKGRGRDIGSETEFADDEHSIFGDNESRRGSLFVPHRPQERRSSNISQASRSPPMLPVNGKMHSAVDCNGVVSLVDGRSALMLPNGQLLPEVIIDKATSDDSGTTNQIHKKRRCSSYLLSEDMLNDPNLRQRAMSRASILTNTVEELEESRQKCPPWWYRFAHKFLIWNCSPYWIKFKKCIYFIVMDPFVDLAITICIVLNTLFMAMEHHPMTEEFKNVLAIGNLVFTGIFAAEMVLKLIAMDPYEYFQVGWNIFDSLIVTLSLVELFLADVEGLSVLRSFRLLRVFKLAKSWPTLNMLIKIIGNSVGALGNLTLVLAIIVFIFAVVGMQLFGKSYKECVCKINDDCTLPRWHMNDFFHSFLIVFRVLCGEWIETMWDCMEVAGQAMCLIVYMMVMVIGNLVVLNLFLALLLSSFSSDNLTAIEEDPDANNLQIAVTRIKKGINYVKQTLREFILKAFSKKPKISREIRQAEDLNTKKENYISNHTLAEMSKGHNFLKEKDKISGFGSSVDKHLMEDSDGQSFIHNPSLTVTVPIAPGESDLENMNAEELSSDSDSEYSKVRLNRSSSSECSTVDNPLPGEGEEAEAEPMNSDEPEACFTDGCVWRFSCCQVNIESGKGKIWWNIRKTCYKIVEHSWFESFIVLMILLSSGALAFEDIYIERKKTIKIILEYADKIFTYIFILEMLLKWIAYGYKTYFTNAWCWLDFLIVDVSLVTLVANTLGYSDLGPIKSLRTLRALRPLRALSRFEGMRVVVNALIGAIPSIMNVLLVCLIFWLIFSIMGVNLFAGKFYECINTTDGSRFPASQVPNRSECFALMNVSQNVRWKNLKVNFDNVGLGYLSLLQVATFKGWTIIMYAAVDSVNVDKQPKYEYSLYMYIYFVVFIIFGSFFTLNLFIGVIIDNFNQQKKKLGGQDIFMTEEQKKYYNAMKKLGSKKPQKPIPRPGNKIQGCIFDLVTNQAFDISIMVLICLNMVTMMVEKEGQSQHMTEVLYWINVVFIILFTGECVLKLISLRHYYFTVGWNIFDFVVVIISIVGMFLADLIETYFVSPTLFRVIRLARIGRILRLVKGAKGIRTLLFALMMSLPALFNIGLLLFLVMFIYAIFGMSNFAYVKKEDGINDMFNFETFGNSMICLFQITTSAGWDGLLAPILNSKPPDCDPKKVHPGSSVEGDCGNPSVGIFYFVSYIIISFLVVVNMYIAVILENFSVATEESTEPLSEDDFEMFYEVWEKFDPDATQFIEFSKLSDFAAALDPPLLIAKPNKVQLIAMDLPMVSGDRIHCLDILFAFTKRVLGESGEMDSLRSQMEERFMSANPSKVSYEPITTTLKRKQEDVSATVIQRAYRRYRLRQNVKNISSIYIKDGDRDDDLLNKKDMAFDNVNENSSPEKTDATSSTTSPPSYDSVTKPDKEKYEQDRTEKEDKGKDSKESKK

Row | Structure (SMILES) | IC50 [nM]
1 | CC[C@@H]1CCn2nc(C(=O)N[C@H]3COc4ccc(C#N)cc4C3)cc2O1 (single isomer, unassigned; isomer B) [US12421225, Example 92 (isomer B)] | < 1000
2 | O=C(N[C@H]1COc2ccc(-c3ccccn3)cc2C1)c1cc2n(n1)CC[C@@H](COCC1CC1)O2 (single isomer, unassigned; isomer B) [US12421225, Example 111 (isomer B)] | < 1000
3 | N#Cc1ccc2c(c1)C[C@@H](NC(=O)c1cc3n(n1)CCC(CC1CC1)O3)CO2 (single isomer, unassigned) [US12421225, Example 97 (isomer B)] | < 1000
4 | O=C(N[C@H]1COc2ccc(CC(F)F)cc2C1)c1cc2n(n1)CC[C@@H](COCC(F)(F)F)O2 (single isomer, unassigned; isomer B) [US12421225, Example 127 (isomer B)] | < 1000

The next lines start with the values.

Row | IC50 [nM] | Structure (SMILES)
5 | < 1000 | N#Cc1ccc2c(c1)C[C@@H](NC(=O)c1cc3n(n1)C[C@@H](CCCOC(F)(F)F)O3)CO2 (single isomer, unassigned; isomer B) [US12421225, Example 247 (isomer B)]
6 | < 1000 | O=C(N[C@H]1COc2ccc(Br)cc2C1)c1cc2n(n1)CC(C(F)(F)F)O2 (some centres not stated) [US12421225, Example 445]
7 | ≤ 10000 | N#Cc1ccc2c(c1)C[C@@H](NC(=O)c1cc3n(n1)CC[C@@H](COCC1(F)CC1)O3)CO2 (single isomer, unassigned; isomer B) [US12421225, Example 552 (isomer B)]
